Values of other authors, collected in patent US9085569B2, “1,2,4-oxadiazol derivatives, process for their preparation and use thereof as intermediates in the preparation of indolic alkaloids” (CONSIGLIO NAZIONALE DELLE RICERCHE, priority 2012, dated 2015).

Tested on: HeLa cell line (uterine cervix cancer)
Conditions: background statement

For `N=C(N)NCCCCCNc1noc(Cc2c[nH]c3ccccc23)n1` [phidianidine B], the cytotoxic activity is given as “high cytotoxic activity”.
